Measurements as given in paper PMC6381024, “Probing Anti-inflammatory Properties Independent of NF-κB Through Conformational Constraint of Peptide-Based Interleukin-1 Receptor Biased Ligands” (Frontiers in Chemistry, 2019).

Tests used:
[1] = system: NF-κB; assay: NF-κB QUANTI-Blue assay (secreted alkaline phosphatase reporter) in HEK-Blue IL-33/IL-1β cells; type: cell-based; parameters: key to Nf-κB (heatmap grade of inhibition): 0: No effect; No effect 01234 Maximum inhibition/efficacy; No effect 01234 Maximum inhibition/efficacy; No effect 01234 Maximum inhibition/efficacy; 4: Maximum inhibition/efficacy; settings: for Nf-κB (heatmap grade of inhibition): HEK-Blue cells, peptide 10^-6 M or Kineret 1.0 mg/mL 30 min, then IL-1β 100 ng/mL 4 h, QUANTI-Blue
Experimental: HEK-Blue IL-33/IL-1β cells (InvivoGen) were pretreated with peptides 1, 5, or 6 (10^−6M) or Kineret (1.0 mg/mL) for 30 min, followed by treatment with a constant concentration of IL-1β (100 ng/mL), and then incubated at 37°C for 4 h. Levels of secreted alkaline phosphatase in cell culture supernatant were determined using the QUANTI-Blue assay, according to the manufacturer's instructions (InvivoGen). Alkaline phosphatase activity was assessed by measuring the optical density (OD) at 620–655 nm with a micro plate reader (EnVision Multilabel reader; PerkinElmer, Waltham, MA). Data are representative of 3 experiments (each with n = 4 per treatment group).
Figure 6 The effects of peptides 1, 5, and 6 on IL-1-induced NF-κB signaling. NF-κB activation was quantified on HEK-blue cells using the QUANTI-blue assay, which spectroscopically detects secreted alkaline phosphatase, a reporter product from the transcription of the NF-κB gene. HEK-blue cells were pre-incubated with peptides 1, 5, and 6 or vehicle, then stimulated with IL-1β for 4 h. Data shown represents the average of 3 experiments, each with n = 4 per treatment group. ^****p < 0.0001 compared to group treated only with IL-1β. Treatment groups that are not labeled with asterisks are statistically non-significant compared to group treated only with IL-1β.

[2] = system: Sprague Dawley rat pups; assay: Oxygen-induced retinopathy (OIR), retinal vaso-obliteration in rat pups; type: in vivo; parameters: key to In vivo OIR (heatmap grade of efficacy): 0: No effect; No effect 01234 Maximum inhibition/efficacy; No effect 01234 Maximum inhibition/efficacy; No effect 01234 Maximum inhibition/efficacy; 4: Maximum inhibition/efficacy; settings: for In vivo OIR (heatmap grade of efficacy): Sprague Dawley rat pups, 80% O2 P5-P10, Kineret 3 mg/kg/day (legend: 15 mg/kg/day), twice-daily i.p.; for In vivo OIR (heatmap grade of efficacy) / Extent of vaso-obliteration (area as percentage of total retinal area) after treatment: peptides 2 mg/kg/day; for Extent of vaso-obliteration (area as percentage of total retinal area) after treatment / Efficacy against vaso-obliteration in the OIR model: rat pups, 80% oxygen days 5 to 10; for Extent of vaso-obliteration (area as percentage of total retinal area) after treatment: Kineret 3 mg/kg/day (legend: 15 mg/kg/day) i.p., untreated ~35%; for Efficacy against vaso-obliteration in the OIR model: 2 mg/kg/day i.p.
Source text: On P5, litters were transferred to a controlled hyperoxic environment (Biospherix OxyCycler A84XOV) and maintained at 80 ± 1% O2, which is used to induce vaso-obliteration of the retinal vasculature. At this timepoint, the vasculature is immature and particularly susceptible to […] insults resulting in vaso-obliteration, a defining characteristic of the early stage of retinopathies in premature infants (Garner and Ashton, [1971]). Control litters were not exposed to hyperoxia and were kept in standard conditions with room air (21% O2). To control for the effects of hyperoxia on the lactation of the dams, dams of hyperoxic litters were switched with dams of control litters on P8.
In litters exposed to hyperoxia, pups were randomized to receive phosphate-buffered saline (PBS) vehicle, 2 mg/kg/day of peptides 1, 5, or 6 or 3 mg/kg/day of Kineret from P5 to P10. These doses were determined from our previous study (Rivera et al., [2013]) and administered in twice-daily intra-peritoneal injections titrated to 20 μL per injection with 28-gauge insulin syringes. A total of 6–8 pups were used for each treatment group.
On P10, pups were euthanized by decapitation under 2% isoflurane anesthesia. Eyes were enucleated and fixed in 4% paraformaldehyde for 1 h at room temperature before washing twice with PBS and storage at 4°C in PBS until further processing.
Under a dissecting microscope, the cornea and lens were gently removed from the eyes and remnants of the hyaloid vasculature were removed from the retinas using surgical scissors and tweezers. The retinas were gently removed from the underlying sclera/choroid complex.
Retinas were treated at room temperature for 1 h with a blocking solution consisting of 1% bovine serum albumin (BSA), 1% normal goat serum, 0.1% Triton X-100 and 0.05% Tween-20 in PBS. The retinas were then double-labeled overnight at 4°C with gentle shaking in an antibody solution consisting of 1 mM CaCl2, 1% Triton X-100, 1% TRITC-conjugated lectin cell endothelial marker from Bandeiraea simplicifolia (Sigma-Aldrich, St Louis, MO) and a 1:500 dilution of rabbit anti-ionized calcium-binding adapter molecule (Iba)-1 antibody (Wako Chemicals USA) in PBS. The retinas were then washed thrice with PBS and incubated with a secondary antibody solution consisting of 1% BSA, 0.1% Triton X-100, 0.05% Tween-20 and 1:500 Alexa-594-conjugated donkey anti-rabbit IgG (ThermoFisher Scientific, Rockford, IL) in PBS for 2 h at room temperature. Retinas were washed thrice with PBS and then flat-mounted onto glass slides with coverslips and Fluoro-Gel mounting medium (Electron Microscopy Sciences, Hatfield, PA).
For assessment of vaso-obliteration, retinas were imaged using an epifluorescence microscope at 10X magnification (Zeiss AxioImager Z2) and version 4.8 of the AxioVision software. Images were captured and stitched together using the software's MosaiX feature. Iba-1 staining was assessed with the same microscope at 20X magnification, and a total of 4 fields per retina were imaged halfway between the optic nerve and the edge of the retina.
The FIJI software was used to the quantify the area of vaso-obliteration in each retina, expressed as a percentage of the area of the whole retina. The number of Iba-1-positive cells was counted using the cell counter plug-in in FIJI, and the average of cell counts in 4 fields per retina was calculated.
Figure 10 The preventive effects of peptides 1, 5, and 6 against vaso-obliteration in an OIR model. Five-days old Sprague Dawley pups and their mothers were kept in 80% oxygen until the 10 day of life, receiving twice-daily intraperitoneal injections of peptides 1, 5, and 6 (2 mg/kg/day), Kineret (15 mg/kg/day) or PBS vehicle (each injection was titrated to a volume of 20 μL). (A) Representative retinal flatmounts stained with FITC-conjugated Bandeiraea simplicifolia lectin, taken at 10X magnification and stitched with MosaiX in Axiovision 4.8. […]

Substance	Nf-κB (heatmap grade of inhibition) [1]	In vivo OIR (heatmap grade of efficacy) [2]	Extent of vaso-obliteration (area as percentage of total retinal area) after treatment [2]	Efficacy against vaso-obliteration in the OIR model [2]	Inhibition of IL-1-induced NF-κB signaling ([1]; HEK-blue cells, peptide 10^-6 M or Kineret 1.0 mg/mL, IL-1β 4 h, QUANTI-blue)
H-D-Arg-D-Tyr-(3R,4R)-Hgl-(S)-Val-D-Glu-D-Leu-D-Ala-NH2 [[(3R,4R)-Hgl^3-(S)-Val^4]-1]	0				
H-D-Arg-D-Tyr-(3R,4R)-Hgl-D-Val-D-Glu-D-Leu-D-Ala-NH2 [[(3R,4R)-Hgl^3]-1]	0				
H-D-Arg-D-Tyr-(3R,4S)-Hgl-(S)-Val-D-Glu-D-Leu-D-Ala-NH2 [[(3R,4S)-Hgl^3-(S)-Val^4]-1]	0				
H-D-Arg-D-Tyr-(3R,4S)-Hgl-D-Val-D-Glu-D-Leu-D-Ala-NH2 [[(3R,4S)-Hgl^3]-1]	0	4	15–25%		
H-D-Arg-D-Tyr-(3S,4R)-Hgl-D-Val-D-Glu-D-Leu-D-Ala-NH2 [[(3S,4R)-Hgl^3]-1]	0	4	15–25%		
H-D-Arg-D-Tyr-(R)-Agl-(S)-Val-D-Glu-D-Leu-D-Ala-NH2 [[(3R)-Agl^3-(S)-Val^4]-1]	0				
H-D-Arg-D-Tyr-(R)-Agl-D-Val-D-Glu-D-Leu-D-Ala-NH2 [[(3R)-Agl^3]-1]	0	0		inactivity	
H-D-Arg-D-Tyr-(S)-Agl-(S)-Val-D-Glu-D-Leu-D-Ala-NH2 [[(3S)-Agl^3-(S)-Val^4]-1]	0				
H-D-Arg-D-Tyr-(S)-Agl-D-Val-D-Glu-D-Leu-D-Ala-NH2 [[(3S)-Agl^3]-1]	0	1		inactivity	
H-D-Arg-D-Tyr-D-Thr-D-Val-D-Glu-D-Leu-D-Ala-NH2 [Peptide 1]	0	4	15–20%		
Kineret: FDA-approved recombinant IL-1 receptor antagonist	4	3	15–20%		inhibited NF-κB
